One experiment has as its system MCF-7. Put plainly: Growth inhibition of tumor cells, MCF-7. The format is cell-based. Conditions: Homo sapiens, MCF7; read-out: IC50 against tumor cells, MCF-7. On the procedure: (§1) Lung cancer cells A549 were separated into a 96-well plate and respectively added with 10 mM TZ47 stock solution to final concentrations of 0 μM, 0.1 μM, 0.5 μM, 1 μM, 2 μM, 4 μM and 8 μM in respective wells. Then the 96-well plate was incubated at 37° C. for 48 h and the growth of the cells was analyzed by a CCK-8 method. […] It can be seen from Table 1 that TZ47 also plays a desirable role in inhibiting the growth of other cancer cells including colorectal cancer, leukemia, liver cancer, melanoma, breast cancer and ovarian cancer.

The next experiment deals with CaoV-3. Put plainly: Growth inhibition of tumor cells, CaoV-3. The format is cell-based. Conditions: Homo sapiens, read-out: IC50 against tumor cells, CaoV-3. As to the method: as §1
In experiment [1] the test system is A549 cells. Put plainly: CCK-8 growth inhibition of A549 lung cancer cells. The format is cell-based. Conditions: Homo sapiens. As to the method:
as §1

Experiment [2] has as its system A549 cells. Put plainly: Apoptosis of A549 cells by flow cytometry. The format is cell-based. Conditions: flow cytometer. The source says: To elucidate how TZ47 induced the cell death, a flow cytometer was applied to measure and analyze the apoptosis of cells in solvent (DMSO) control group and the treatment groups with different gradients of TZ47 in the use of a cell apoptosis detection kit.

The next experiment concerns the target AURKB (Homo sapiens, UniProt Q96GD4). The experiment can be described thus: In vitro phosphorylation (kinase activity) assay with Flag-AURKB and histone H3. The format is biochemical. Details: made in house; host or cells: 293T cells (transfected with pcDNA-AURKB-Flag). Conditions: 2 μM of TZ47, Flag-AURKB, histone H3 substrate. As to the method:
Thus, it is speculated that the treatment affected the activity of a kinase which was able to phosphorylate the H3S10. The following procedures were conducted to verify whether TZ47 inhibited the activity of AURKB directly. First, prokaryotic expression of AURKB protein and purification were performed and then a microscale thermophoresis (MST) was used to detect the binding between TZ47 and AURKB protein by testing the change of microscale thermophoresis caused by the hydrated layer (generally derived from the change of the structure/conformation of biomolecules) based on the directional movement of particles in a microscopic temperature gradient. […] Flag-tagged AURKB protein was then enriched by M2-flag beads (anti-Flag antibody conjugated) from the lysed liquid of 293T cells and used in the in-vitro kinase activity analysis. It can be seen from FIGS. 6A-6B that the Flag-AURKB protein had kinase activity and can phosphorylate histone H3.
The components were mixed according to the above specifications, and reacted at 30° C. for 30 min. After the reaction was completed, the reaction mixture was subjected to western blot assay.

Experiment [3] relates to A549 cells. The experiment can be described thus: Transwell cell migration test. The format is cell-based. Conditions: 2 μM, 12 h. On the procedure:
In addition, Transwell test was also conducted to determine the effect of the expression level of AURKB on the cell migration ability. Similarly, TZ47 (2 μM) was used to treat cells in the Transwell test. […] At the same time, compared to the control scr cells, AURKB-kd cells can partially antagonize the inhibitory effect of TZ47 on cell migration (FIGS. 10A-10B). […] The specific steps were described as follows. • a. Cell migration test • 1) The cells to be tested in the logarithmic growth phase was digested with trypsin and centrifuged to collect the cells. Then the cells were washed once with PBS and resuspended with serum-free DMEM for counting. • 2) 500 μl, of DMEM medium containing 10% FBS was added to a 24-well plate and a Transwell chamber was carefully placed into the plate to prevent air bubbles. Then 100 μL of cell suspension (about 50,000 cells) was added to the Transwell chamber, and a TZ47 solution (final concentration: 2 μM) was simultaneously added to the TZ47 treatment group. The 24-well plate was incubated at 37° C. and 5% CO2 in a cell incubator for 12 h. • 3) The Transwell chamber was removed from the plate and washed in PBS to remove the medium. […]

Like-named read-outs stand apart in the source and are kept apart here.

Sequence of AURKB (Q96GD4 1-345 isoform Q96GD4-5): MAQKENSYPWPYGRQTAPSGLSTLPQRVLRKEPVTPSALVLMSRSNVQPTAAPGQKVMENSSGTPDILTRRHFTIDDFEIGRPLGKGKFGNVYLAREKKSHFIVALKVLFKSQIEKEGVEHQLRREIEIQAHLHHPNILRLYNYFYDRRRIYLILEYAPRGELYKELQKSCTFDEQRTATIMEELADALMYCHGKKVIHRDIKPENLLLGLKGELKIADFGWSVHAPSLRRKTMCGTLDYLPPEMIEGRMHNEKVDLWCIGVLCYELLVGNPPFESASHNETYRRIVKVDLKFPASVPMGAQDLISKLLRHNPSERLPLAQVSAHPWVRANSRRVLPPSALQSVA

As a reminder, the IC50 is the point on the concentration scale where inhibition reaches its midpoint. With `c1ccc2c(Cc3[nH]c4ccccc4c3Cc3c[nH]c4ccccc34)c[nH]c2c1` [TZ47], the IC50 is 1.87 ± 0.15 µM with MCF-7; 4.47 ± 0.12 µM in the experiment on CaoV-3; 0.73 µM with A549 cells [1] (CCK-8, 48 h, read-out: IC50 of TZ47 against A549); 0.73 ± 0.24 µM in the experiment with A549 cells [1] (read-out: IC50 against tumor cells, A549). In addition, the “apoptosis, 1 μM and 2 μM treatment groups” value in the experiment on A549 cells [2] (1 μM and 2 μM) is recorded as “no significant difference”. The “proportion of early apoptotic cells” value in the experiment with A549 cells [2] (4 μM) is “significantly increased”. Moreover, the “kinase activity of AURKB” value at AURKB is reported as “completely inhibited”. In addition, in the experiment with A549 cells [3], the “migration ability of cells” value is “significantly showed inhibitory effect”.

The record behind these values is US11840525B2, “Use of AURKB small-molecule inhibitors for treatment of non-small cell lung cancer” (Nanjing China-Australia Institute of Translational Medicine …, priority 2016, dated 2023).
